Measured values: patent US20130059783A1, “COMPOSITIONS AND METHODS FOR EXPANDING BFU-E CELLS” (priority 2010, published 2013)

Key:
Type in all cases: cell-based, mouse
[1] = test system: BFU-E cells; assay: FACS analysis of c-kit expression of BFU-E cells in SFELE culture; conditions: day 3 of culture, 100 nM Dex
Description: (§1) FIGS. 1A-1F. Glucocorticoids stimulate stress erythropoiesis by enhancing erythroblast output predominantly from BFU-E progenitors. […] Error bars show one standard deviation. […] Error bars show one standard deviation. […] Shown is the fraction of c-kit+ cells after 72 hours. […] Cell numbers in each clone were estimated under the microscope on Day 8. 80% of sorted BFU-E cells form more than 100 daughter cells in erythroid expansion culture.

[2] = test system: CFU-E cells; assay: Colony forming assays of sorted CFU-E fractions (Table S2)
From the text: Separation of BFU-E and CFU-E cells by expression of CD71, CD24a or both CD71 and CD24a. C-kit positive BFU-E and CFU-E cells were sorted from FLEP cells based on expression of CD71, CD24a or both CD71 and CD24a. In all experiments the BFU-E fraction was the subset of c-kit^positive FLEP cells with the 10% lowest expression of CD71 and/or CD24a, while the CFU-E fraction was the subset with 20% highest expression of CD71 and/or CD24a. Sorted BFU-E and CFU-E populations were subjected to colony forming assays under two different conditions.
The potential of the sorted cells to form large BFU-E, small BFU-E, CFU-G/M/Mk, and CFU-GEMM colonies (±standard deviation) was determined by a second assay in methyl cellulose containing 10U Epo, 20 nM IL-3, 20 nM IL-6 and 50 nM SCF per mL, and was scored at day 8-9. […] To determine the effect of DMOG, colony assays of sorted BFU-E (CD71 and CD24a^10% low) cells were also performed in the presence of 333 μM DMOG.
Colonies were scored after 3 days. […] The number of hemoglobinized early BFU-E and late BFU-E colonies was determined after 8-9 days following staining with 2,7-Diaminofluorene (Sigma Chemical, St. Louis, Mo.).

[3] = test system: BFU-E cells; assay: Serum free erythroid liquid expansion (SFELE) progenitor growth assay of sorted BFU-E cells; conditions: for Total cell expansion from 1000 BFU-E cells: CD71 10% low BFU-E cells, SFELE medium
Description: (§2) FIGS. 1A-1F. […] Error bars show one standard deviation. […] Error bars show one standard deviation. […] Shown is the fraction of c-kit+ cells after 72 hours. […] Cell numbers in each clone were estimated under the microscope on Day 8.
(§3) FIGS. 3A-3B. […] The experimental protocol was similar to that used in FIGS. 1A and B except that the CFU-E and BFU-E cells were purer (CD71 and CD24a^20% high and CD71 and CD24a^10% low, respectively). […] (A) Proliferation of sorted CFU-E cells. […] Error bars show one standard deviation. (B) Proliferation of sorted BFU-E cells. […] Error bars show one standard deviation.
FIG. 4. […] Cells were counted from day 4 until the day cell counts dropped.
(A) The total number of cells formed from 1000 BFU-E cells at different time points. […] Standard deviation between four separate biological experiments is shown in parenthesis (n/d=not determined).
(§4) We developed a modified version of the serum free erythroid liquid expansion culture (SFELE) medium described by Dolzning et al. (Dolznig et al., 2006).

[4] = test system: CFU-E cells; assay: SFELE progenitor growth assay of sorted CFU-E cells; conditions: 100 nM Dex
Description: as §2, §3, §4

[5] = test system: BFU-E cells; assay: Single BFU-E cell culture in SFELE medium
Description: as §1
The “BFU-E” cell population that contains the GC-responsive cells, while highly enriched for BFU-Es, is a heterogeneous mix of erythroid progenitors. In order to determine the effect of GCs at the single cell level, we performed single “BFU-E” cell culture experiments (FIG. 1E).

[6] = CD24a 20% high cells, 100 nM Dex
[7] = CD71 20% high cells, 100 nM Dex
[8] = CD71 and CD24a 20% high cells (n = 1), line marked +
[9] = sorted CD71 20% high cells, with Dex
[10] = dose response curves in the absence of DMOG

C[C@@H]1C[C@H]2[C@@H]3CCC4=CC(=O)C=C[C@]4(C)[C@@]3(F)[C@@H](O)C[C@]2(C)[C@@]1(O)C(=O)CO [Dex, dexamethasone]
Cells still expressing c-kit [1]: 55%
CFU-G/M/Meg colonies [2, 6]: 0.3 (±0.3) colonies per 1000 plated cells
GEMM colonies [2, 6]: 0 colonies per 1000 plated cells
large BFU-E colonies [2, 6]: 0.4 (±2) colonies per 1000 plated cells
small BFU-E colonies [2, 6]: 15 (±2) colonies per 1000 plated cells
CFU-E colonies [2, 7]: 565 (±120) colonies per 1000 plated cells
CFU-G/M/Meg colonies [2, 7]: 0 colonies per 1000 plated cells
GEMM colonies [2, 7]: 0 colonies per 1000 plated cells
large BFU-E colonies [2, 7]: 0 colonies per 1000 plated cells
small BFU-E colonies [2, 7]: 17 (±31) colonies per 1000 plated cells
CFU-E colonies [2, 8]: 526 colonies per 1000 plated cells
CFU-G/M/Meg colonies [2, 8]: 0 colonies per 1000 plated cells
GEMM colonies [2, 8]: 0 colonies per 1000 plated cells
large BFU-E colonies [2, 8]: 1 colonies per 1000 plated cells
small BFU-E colonies [2, 8]: 29 colonies per 1000 plated cells
Cells forming early BFU-E-derived colonies [2, 9]: 0%
Cells forming late BFU-E-derived colonies [2, 9]: 1.7%
Cells forming single-CFU-E colonies [2, 9]: 57%
Increase of total number of cells after the first three days ([3]; CD24 and CD71 10% low BFU-E cells, 100 nM Dex and/or 333 μM DMOG): ~20 fold
Total cell expansion from 1000 "BFU-E" cells, liquid culture ([3]; CD24 and CD71 10% low BFU-E cells, SFELE, 100 nM Dex and/or 333 μM DMOG, day 1): 3,900
Total cell expansion from 1000 "BFU-E" cells, liquid culture ([3]; CD24 and CD71 10% low BFU-E cells, SFELE, 100 nM Dex and/or 333 μM DMOG, day 2): 30,000
Total cell expansion from 1000 "BFU-E" cells, liquid culture ([3]; CD24 and CD71 10% low BFU-E cells, SFELE, 100 nM Dex and/or 333 μM DMOG, day 3): 200,000
Total cell expansion from 1000 "BFU-E" cells, liquid culture ([3]; CD24 and CD71 10% low BFU-E cells, SFELE, 100 nM Dex and/or 333 μM DMOG, day 4): 1,200,000
Total cell expansion from 1000 "BFU-E" cells, liquid culture ([3]; CD24 and CD71 10% low BFU-E cells, SFELE, 100 nM Dex and/or 333 μM DMOG, day 5): 3,500,000
Total cell expansion from 1000 "BFU-E" cells, liquid culture ([3]; CD24 and CD71 10% low BFU-E cells, SFELE, 100 nM Dex and/or 333 μM DMOG, day 6): 7,200,000
Total cell expansion from 1000 "BFU-E" cells, liquid culture ([3]; CD24 and CD71 10% low BFU-E cells, SFELE, 100 nM Dex and/or 333 μM DMOG, day 7): 14,000,000
Total cell expansion from 1000 "BFU-E" cells, liquid culture ([3]; CD24 and CD71 10% low BFU-E cells, SFELE, 100 nM Dex and/or 333 μM DMOG, day 8): 20,000,000
Total cell expansion from 1000 "BFU-E" cells, liquid culture ([3]; CD24 and CD71 10% low BFU-E cells, SFELE, 100 nM Dex and/or 333 μM DMOG, day 9): 25,000,000
Total cell expansion from 1000 "BFU-E" cells, liquid culture ([3]; CD24 and CD71 10% low BFU-E cells, SFELE, 100 nM Dex and/or 333 μM DMOG, day 10): 25,000,000
Total cell expansion from 1000 "BFU-E" cells, liquid culture ([3]; CD24 and CD71 10% low BFU-E cells, SFELE, 100 nM Dex and/or 333 μM DMOG, day 11): 20,000,000
Total cell expansion from 1000 BFU-E cells ([3]; 100 nM Dex, 24 h): 5,367 (±1,626)
Total cell expansion from 1000 BFU-E cells ([3]; 100 nM Dex, 48 h): 50,013 (±18,160)
Total cell expansion from 1000 BFU-E cells ([3]; 100 nM Dex, 72 h): 297,340 (±114,540)
Total cell expansion from 1000 BFU-E cells ([3]; 100 nM Dex, 120 h): 2,484,148 (±988,022)
Expansion of BFU-E cells, peak ([3]; CD71 10% low cells, SFELE, 100 nM Dex, peak at day 8): 8,800 fold
Increase of proliferation of sorted BFU-E cells ([3]; CD71 and CD24a 10% low cells, SFELE, 100 nM Dex and/or 333 μM DMOG, versus no additions): 42 fold
Average number of divisions of each BFU-E cell ([3]; SFELE, 100 nM Dex): 13 times
Cell number per original BFU-E cell ([3]; SFELE, 100 nM Dex): 8,800 cells per original BFU-E cell
Dex concentrations at which a clear effect on CFU-E formation is seen [3, 10]: > 2 nM
Dex concentrations giving maximum effect on CFU-E formation [3, 10]: above 10 nM
Dex concentration that supports maximal stimulation of BFU-E proliferation ([3]; dose-response, FIG. 1 C and D): 10 nM
Dex concentrations with little stimulatory effect on BFU-E proliferation ([3]; dose-response, FIG. 1 C and D): below 1 nM
Average number of erythroblasts formed from each CFU-E cell [4]: 28
Expansion of sorted CFU-E cells (production of erythroblasts), peak ([4]; CD71 20% high cells, peak at day 3): 28 fold
Erythroblasts generated by individual BFU-E cells ([5]; day 8, 100 nM Dex): more than 300,000 erythroblasts
Cell divisions performed by some BFU-E cells ([5]; in 8 days, 100 nM Dex): more than 18 cell divisions
Additional cell divisions allowed ([5]; single cell level, 100 nM Dex versus without Dex): more than 6 cell divisions
